Structures can show the parent of a compound that is named as a salt.
Legend:
solubility = format: physicochemical; conditions: for solubility: water, read-out: soluble in water up to; for solubility / soluble in water up to: in water
5HT1 A receptors = target: T1, 5HT1 A receptors (Rattus norvegicus, UniProt P19327); test: 5HT1 A binding (3H-8-OH-DPAT, hippocampus membranes); set-up: species or system Male Charles River rats; conditions: 3H-8-OH-DPAT ligand 1 nM, 30 min at 25° C.
T1 construct: The hippocampus is ground in a Polytrone; from tissue; host or cells: rat hippocampus membranes (male Charles River rats)
T1 sequence (P19327 1-422): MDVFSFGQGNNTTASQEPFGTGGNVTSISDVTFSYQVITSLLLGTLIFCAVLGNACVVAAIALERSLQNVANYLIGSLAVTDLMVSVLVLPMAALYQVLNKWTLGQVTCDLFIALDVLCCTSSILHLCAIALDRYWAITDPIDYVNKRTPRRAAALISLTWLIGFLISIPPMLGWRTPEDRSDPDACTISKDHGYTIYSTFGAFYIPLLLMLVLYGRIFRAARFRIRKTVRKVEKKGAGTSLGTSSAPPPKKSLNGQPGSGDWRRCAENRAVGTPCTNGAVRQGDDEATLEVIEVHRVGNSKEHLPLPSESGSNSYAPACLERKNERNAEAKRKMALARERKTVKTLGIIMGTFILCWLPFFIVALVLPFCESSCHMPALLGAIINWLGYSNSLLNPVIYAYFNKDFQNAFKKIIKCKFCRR
Experimental: The 5HT1 A binding studies were carried out according to the technique of Peroutka (cf. Peroutka S. J., J. Neurochem. 47, p. 529-40, 1986). Male Charles River rats are stunned and decapitated, and the brain is removed and dissected. The different cerebral areas obtained are used or preserved at […]. The hippocampus is ground in a Polytrone® (20 seconds at 7) in 20 volumes of 50 mM tris HCl buffer pH 7.7 at 25° C.) and centrifuged at 45000 g for 10 min. The pellet is separated, taken up in the same volume of tris buffer and incubated for 10 min at 37° C. and then recentrifuged for 10 min at 45000 g. The pellet is finally taken up in 100 volumes of tris HCl buffer containing 10 μM of pargyline, 4 mM of CaCl2 and 0.1% of ascorbic acid. The mixture obtained is homogenized in a Dounce.
The binding is carried out starting with 0.8 ml of the above membrane suspension to which 0.1 ml of ^3 H-8-OH-DPAT ligand (at a concentration of 1 nM) and either 0.1 ml of tris buffer (control) or the compound of the above invention is added. After incubation for 30 min at 25° C., the mixture is filtered on GF/B (Whatman) and rinsed with 5 ml of cold tris HCl buffer. The residue and the filter are then introduced into a vial containing 3 ml of Instagel liquid scintillant (Packard) and the radioactivity is measured in a Packard counter (Tri-Carbs).
The IC50 are determined graphically for a concentration of ligand of 1 nM.
Table I gives the IC50 for the 5HT1 A receptors for certain derivatives of the invention by way of nonlimiting example.

SMILES	soluble in DMSO up to (solubility)	solubility (solubility) [µg/mL]	also measured
CC1Oc2ccccc2C(=O)N1CCN1CCN(c2cccc(C(F)(F)F)c2)CC1 (racemic) [Example 19, Hydrate of the (dl) hydrochloride of 2.3-dihydro-2-methyl-3-[2-(4-(3-trifluoromethylphenyl)piperazinyl)ethyl]-4H-1,3-benzoxazin-4-one]	up to 2%		
O=C1c2ccccc2OCN1CCCCN1CCN(c2cccc(C(F)(F)F)c2)CC1 [Example 1, Monohydrochloric 3-dihydro-3-[4-(4-(3-trifluoromethylphenyl)piperazinyl)butyl]-4H-1,3-benzoxazin-4-one]	up to 6%		IC50 (5HT1 A receptors): 7 nM
O=C1c2ccccc2OCN1CCCN1CCN(c2ccccc2)CC1 [Example 2, Monohydrochloride of 2,3-dihydro-3-[3-(4-phenylpiperazinyl)propyl]-4H-1,3-benzoxazin-4-one]		≤ 10000	
O=C1c2ccccc2OCN1CCN1CCN(c2ccccc2)CC1 [Example 3, Dihydrochloride of 2,3-dihydro-3-[2-(4-phenylpiperazinyl)ethyl]-4H-1,3-benzoxazin-4-one]		≤ 10000	
O=C1c2ccccc2OCN1CCCCN1CCN(c2ccccc2)CC1 [Example 4, Hydrochloride of 2.3-dihydro-3-[4-(4-phenylpiperazinyl)butyl]-4H-1,3-benzoxazin-4-one]		≤ 5000	
COc1ccccc1N1CCN(CCN2COc3ccccc3C2=O)CC1 [Example 5 monohydrochloride]			soluble in water up to (solubility): up to 0.9%
COc1ccccc1N1CCN(CCN2COc3ccccc3C2=O)CC1 [Example 5, Dihydrochloride of 2,3-dihydro-3-[2-(4-(2-methoxyphenyl)piperazinyl)ethyl]-4H-1,3-benzoxazin-4-one]			IC50 (5HT1 A receptors): 5 nM; soluble in water up to (solubility): up to 6%
O=C1c2ccccc2OCN1CCN1CCN(c2cccc(C(F)(F)F)c2)CC1 [Example 10]	up to 7%		
O=C1c2ccccc2OCN1CCN1CCN(c2ccccn2)CC1 [Example 11, Hydrochloride of 2,3-dihydro-3-[2-(4-(2-pyridinyl)piperazinyl)ethyl]-4H-1,3-benzoxazin-4-one]		≤ 3000	
O=C1c2ccccc2OCN1CCN1CCN(c2ncccn2)CC1 [Example 12, Hydrochloride of 2,3-dihydro-3-[2-(4-(2-pyrimidinyl)piperazinyl)ethyl]-4H-1,3-benzoxazin-4-one]		≤ 12000	
COc1ccc2c(c1)C(=O)N(CCN1CCN(c3cccc(C(F)(F)F)c3)CC1)CO2 [Example 16, Hydrochloride of 2.6-dihydro-6-methoxy-3-[2-(4-(3-trifluoromethylphenyl)piperazinyl)ethyl]-4H-1,3-benzoxazin-4-one]	up to 7%		
COc1ccc(N2CCN(CCCCN3COc4cc(OC)c(OC)cc4C3=O)CC2)cc1OC [Example 18, Hydrochloride of 2.3-dihydro-6,7-dimethoxy-3-[4-(4-(3,4-dimethoxyphenyl)piperazinyl)butyl]-4H-1,3-benzoxazin-4-one]	up to 2%		

Continued, in another order:

soluble in DMSO up to (solubility)	solubility (solubility) [µg/mL]	SMILES	also measured
	≤ 5000	COc1ccccc1N1CCN(CCCN2COc3ccccc3C2=O)CC1 [Example 6, Hydrochloride of 2,3-dihydro-3-[3-(4-(2-methoxyphenyl)piperazinyl)propyl]-4H-1,3-benzoxazin-4-one]	
	≤ 30000	COc1ccccc1N1CCN(CCCCN2COc3ccccc3C2=O)CC1 [Example 7, Monohydrate of the dihydrochloride of 2,3-dihydro-3-[4-(4-(2-methoxyphenyl)piperazinyl)butyl]-4H-1,3-benzoxazin-4-one]	
	≤ 3500	Cc1ccccc1N1CCN(CCN2COc3ccccc3C2=O)CC1 [Example 8, Monohydrochloride of 2,3-dihydro-3-[2-(4-(2-methylphenyl)piperazinyl)ethyl]-4H-1,3-benzoxazin-4-one]	
up to 10%		O=C1c2ccccc2OCN1CCN1CCN(c2cccc(Cl)c2)CC1 [Example 9, Hydrochloride of 2.3-dihydro-3-[2-(4-(3-chlorophenyl)piperazinyl)ethyl]-4H-1,3-benzoxazin-4-one]	
up to 3%		COc1ccccc1N1CCN(CCN2COc3ccc(C)cc3C2=O)CC1 [Example 13, Hydrochloride of 2.3-dihydro-6-methyl-3-[2-(4-(2-methoxyphenyl)piperazinyl)ethyl]-4H-1,3-benzoxazin-4-one]	
up to 1%		COc1ccccc1N1CCN(CCN2COc3ccc(Cl)cc3C2=O)CC1 [Example 14, Hydrochloride of 6-chloro-2.3-dihydro-3-[2-(4-(2-methoxyphenyl)piperazinyl)ethyl]-4H-1,3-benzoxazin-4-one]	IC50 (5HT1 A receptors): 5 nM
up to 1.3%		COc1ccc2c(c1)C(=O)N(CCN1CCN(c3ccccc3OC)CC1)CO2 [Example 15, Hydrochloride of 6-methoxy-2,3-dihydro-3-[2-(4-(2-methoxyphenyl)piperazinyl)ethyl]-4H-1,3-benzoxazin-4-one]	IC50 (5HT1 A receptors): 2.2 nM
	≤ 2000	COc1cc2c(cc1OC)C(=O)N(CCCCN1CCN(c3ccccc3OC)CC1)CO2 [Example 17, Hydrochloride of 2.3-dihydro-6,7-dimethoxy-3-[4-(4-(2-methoxyphenyl)piperazinyl)butyl]-4H-1,3-benzoxazin-4-one]	

— patent publication US5308844A, “Substituted 3-piperazinylalkyl-2,3-dihydro-4H-1,3-benzoxazin-4-ones and their use in therapy” (Pierre Fabre Medicament, priority 1991, dated 1994)
